Experimental data taken from patent publication US11780839B2, “Compounds for treating Huntington's disease” (PTC THERAPEUTICS, INC., priority 2018, dated 2023).

What follows are compounds tested on Endogenous Huntingtin Protein (assay: Endogenous Huntingtin Protein Assay (ELISA-based Meso Scale Discovery electrochemiluminescence)). Conditions: MSD electrochemiluminescence, Table 1.
Assay type: cell-based
Summary of the method: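 Huntingtin was captured overnight at 4 °C on plates coated with 1 μg/mL MW1 (polyQ-expanded) or MAB2166 antibody and BSA-blocked. Detection used a rabbit monoclonal and then a SULFO-TAG goat anti-rabbit antibody (0.25 μg/mL, 1 h each, room temperature). Signal was read by electrochemiluminescence.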

SMILES | IC50
[2H]C([2H])([2H])n1cc(-c2ccc(-c3cnc(N(C)C4CC(C)(C)NC(C)(C)C4)nn3)c(O)c2)cn1 [Cpd 14, 5-[1-(^2H3)methyl-1H-pyrazol-4-yl]-2-{3-[methyl(2,2,6,6-tetramethylpiperidin-4-yl)amino]-1,2,4-triazin-6-yl}phenol] | ≤ 100 nM
CC1(C)C[C@H](Nc2ncc(-c3ccc(-c4ccc5nccn5n4)cc3O)nn2)[C@H](F)C(C)(C)N1 [Cpd 249, 2-(3-{[(3S,4S)-3-fluoro-2,2,6,6-tetramethylpiperidin-4-yl]amino}-1,2,4-triazin-6-yl)-5-(imidazo[1,2-b]pyridazin-6-yl)phenol] | ≤ 100 nM
N[C@@H]1CN(c2ncc(-c3ccc(-c4cn[nH]c4)cc3O)nn2)CC12CC2 [Cpd 115, 2-{3-[(7S)-7-amino-5-azaspiro[2.4]heptan-5-yl]-1,2,4-triazin-6-yl}-5-(1H-pyrazol-4-yl)phenol] | 100 to 500 nM
CN(c1ncc(-c2ccc(-c3c[nH]nn3)cc2O)nn1)C1CC(C)(C)NC(C)(C)C1 [Cpd 4, 2-{3-[methyl(2,2,6,6-tetramethylpiperidin-4-yl)amino]-1,2,4-triazin-6-yl}-5-(1H-1,2,3-triazol-4-yl)phenol] | ≤ 100 nM
CN1CCO[C@@H]2CN(c3ncc(-c4ccc(-c5cn[nH]c5)cc4O)nn3)C[C@@H]21 [Cpd 311, 2-{3-[(4aS,7aR)-4-methylhexahydropyrrolo[3,4-b][1,4]oxazin-6(2H)-yl]-1,2,4-triazin-6-yl}-5-(1H-pyrazol-4-yl)phenol] | 1000 to 3000 nM
Oc1cc(-c2cn[nH]c2)ccc1-c1cnc(N2CC3CNCC3C2)nn1 (centres unmarked) [Cpd 337, 2-[3-(hexahydropyrrolo[3,4-c]pyrrol-2(1H)-yl)-1,2,4-triazin-6-yl]-5-(1H-pyrazol-4-yl)phenol] | ≤ 100 nM
COc1cc(-c2ccc(-c3cnc(N[C@H]4CC(C)(C)NC(C)(C)[C@H]4F)nn3)c(O)c2)ncn1 [Cpd 290, 2-(3-{[(3S,4S)-3-fluoro-2,2,6,6-tetramethylpiperidin-4-yl]amino}-1,2,4-triazin-6-yl)-5-(6-methoxypyrimidin-4-yl)phenol] | ≤ 100 nM
Cc1n[nH]cc1-c1ccc(-c2cnc(N3CCC(NC(C)(C)C)C3)nn2)c(O)c1 (centres unmarked) [Cpd 375, 2-{3-[3-(tert-butylamino)pyrrolidin-1-yl]-1,2,4-triazin-6-yl}-5-(3-methyl-1H-pyrazol-4-yl)phenol] | ≤ 100 nM
Cc1nsc(-c2ccc(-c3cnc(N(C)C4CC(C)(C)NC(C)(C)C4)nn3)c(O)c2)n1 [Cpd 66, 2-{3-[methyl(2,2,6,6-tetramethylpiperidin-4-yl)amino]-1,2,4-triazin-6-yl}-5-(3-methyl-1,2,4-thiadiazol-5-yl)phenol] | ≤ 100 nM
CC(C)(C)NCC1CCN(c2ncc(-c3ccc(-c4cn[nH]c4)cc3O)nn2)C1 (centres unmarked) [Cpd 390, 2-(3-{3-[(tert-butylamino)methyl]pyrrolidin-1-yl}-1,2,4-triazin-6-yl)-5-(1H-pyrazol-4-yl)phenol] | ≤ 100 nM
CN(c1ncc(-c2ccc(-c3cc(F)c4c(c3)ncn4C)cc2O)nn1)C1CC(C)(C)NC(C)(C)C1 [Cpd 300, 5-(7-fluoro-1-methyl-1H-benzimidazol-5-yl)-2-{3-[methyl(2,2,6,6-tetramethylpiperidin-4-yl)amino]-1,2,4-triazin-6-yl}phenol] | 1000 to 3000 nM
CN(c1ncc(-c2ccc(-n3ccnc3)cc2O)nn1)C1CC(C)(C)NC(C)(C)C1 [Cpd 89, 5-(1H-imidazol-1-yl)-2-{3-[methyl(2,2,6,6-tetramethylpiperidin-4-yl)amino]-1,2,4-triazin-6-yl}phenol] | ≤ 100 nM
Oc1cc(-c2cn[nH]c2)ccc1-c1cnc(N2CCC3(CC2)CNC3)nn1 [Cpd 95, 2-[3-(2,7-diazaspiro[3.5]nonan-7-yl)-1,2,4-triazin-6-yl]-5-(1H-pyrazol-4-yl)phenol] | 100 to 500 nM
CN(c1ncc(-c2ccc(-c3cccnc3)cc2O)nn1)C1CC(C)(C)NC(C)(C)C1 [Cpd 70, 2-{3-[methyl(2,2,6,6-tetramethylpiperidin-4-yl)amino]-1,2,4-triazin-6-yl}-5-(pyridin-3-yl)phenol] | 100 to 500 nM
CC(C)(C)N[C@H]1CCN(c2ncc(-c3ccc(-c4c[nH]nc4F)cc3O)nn2)C1 [Cpd 378, 2-{3-[(3S)-3-(tert-butylamino)pyrrolidin-1-yl]-1,2,4-triazin-6-yl}-5-(3-fluoro-1H-pyrazol-4-yl)phenol] | ≤ 100 nM
CN(c1ncc(-c2ccc(-c3ccc4c(c3)nnn4C)cc2O)nn1)C1CC(C)(C)NC(C)(C)C1 [Cpd 200, 5-(1-methyl-1H-benzotriazol-5-yl)-2-{3-[methyl(2,2,6,6-tetramethylpiperidin-4-yl)amino]-1,2,4-triazin-6-yl}phenol] | ≤ 100 nM
CC1(NCC2CCN(c3ncc(-c4ccc(-c5cn[nH]c5)cc4O)nn3)C2)CCOCC1 (centres unmarked) [Cpd 391, 2-[3-(3-{[(4-methyloxan-4-yl)amino]methyl}pyrrolidin-1-yl)-1,2,4-triazin-6-yl]-5-(1H-pyrazol-4-yl)phenol] | ≤ 100 nM
CC(C)(C)NC1CCN(c2ncc(-c3ccc(-n4ccnc4)cc3O)nn2)C1 (stereo not drawn) [Cpd 187, 2-{3-[3-(tert-butylamino)pyrrolidin-l-yl]-1,2,4-triazin-6-yl}-5-(1H-imidazol-1-yl)phenol] | 100 to 500 nM
CN(c1ncc(-c2ccc(-c3ccn4nncc4c3)cc2O)nn1)C1CC(C)(C)NC(C)(C)C1 [Cpd 152, 2-{3-[methyl(2,2,6,6-tetramethylpiperidin-4-yl)amino]-1,2,4-triazin-6-yl}-5-([1,2,3]triazolo[1,5-a]pyridin-5-yl)phenol] | ≤ 100 nM
CN(c1ncc(-c2ccc(-c3ccn(C)n3)cc2O)nn1)C1CC(C)(C)NC(C)(C)C1 [Cpd 76, 5-(1-methyl-1H-pyrazol-3-yl)-2-{3-[methyl(2,2,6,6-tetramethylpiperidin-4-yl)amino]-1,2,4-triazin-6-yl}phenol] | ≤ 100 nM
CN1CCC2(CC1)CN(c1ncc(-c3ccc(-c4ncns4)cc3O)nn1)C2 [Cpd 272, 2-[3-(7-methyl-2,7-diazaspiro[3.5]nonan-2-yl)-1,2,4-triazin-6-yl]-5-(1,2,4-thiadiazol-5-yl)phenol] | 100 to 500 nM
CN(c1ncc(-c2ccc(-c3ccn(C)n3)c(O)c2O)nn1)C1CC(C)(C)NC(C)(C)C1 [Cpd 368, 3-(1-methyl-1H-pyrazol-3-yl)-6-{3-[methyl(2,2,6,6-tetramethylpiperidin-4-yl)amino]-1,2,4-triazin-6-yl}benzene-1,2-diol] | 100 to 500 nM
CC(C)NC1CCN(c2ncc(-c3ccc(-c4ncco4)cc3O)nn2)C1 (stereo not drawn) [Cpd 308, 5-(1,3-oxazol-2-yl)-2-(3-{3-[(propan-2-yl)amino]pyrrolidin-l-yl}-1,2,4-triazin-6-yl)phenol] | 100 to 500 nM
CNC1CCN(c2ncc(-c3ccc(-n4cc(F)cn4)cc3O)nn2)C1 (centres unmarked) [Cpd 219, 5-(4-fluoro-1H-pyrazol-1-yl)-2-{3-[3-(methylamino)pyrrolidin-1-yl]-1,2,4-triazin-6-yl}phenol] | 100 to 500 nM
Oc1cc(-c2cn[nH]c2)ccc1-c1cnc(N2CCC(CNC3CCC3)C2)nn1 (centres unmarked) [Cpd 415, 2-(3-{3-[(cyclobutylamino)methyl]pyrrolidin-1-yl}-1,2,4-triazin-6-yl)-5-(1H-pyrazol-4-yl)phenol] | ≤ 100 nM
Cn1ncc(-c2ccc(-c3cnc(N4CCC(NC(C)(C)C)C4)nn3)c(O)c2)n1 (centres unmarked) [Cpd 210, 2-{3-[3-(tert-butylamino)pyrrolidin-1-yl]-1,2,4-triazin-6-yl}-5-(2-methyl-2H-1,2,3-triazol-4-yl)phenol] | ≤ 100 nM
